We go through 17 molecules from patent publication US7638509B2, “Diene compounds and formulations” (priority 2003, dated 2009).

One may read the melting point as the temperature, or range, at which the solid turns liquid.

The target in data set [1] is T1, wild-type AR (Homo sapiens, UniProt P10275).
T1 sequence (P10275 1-920): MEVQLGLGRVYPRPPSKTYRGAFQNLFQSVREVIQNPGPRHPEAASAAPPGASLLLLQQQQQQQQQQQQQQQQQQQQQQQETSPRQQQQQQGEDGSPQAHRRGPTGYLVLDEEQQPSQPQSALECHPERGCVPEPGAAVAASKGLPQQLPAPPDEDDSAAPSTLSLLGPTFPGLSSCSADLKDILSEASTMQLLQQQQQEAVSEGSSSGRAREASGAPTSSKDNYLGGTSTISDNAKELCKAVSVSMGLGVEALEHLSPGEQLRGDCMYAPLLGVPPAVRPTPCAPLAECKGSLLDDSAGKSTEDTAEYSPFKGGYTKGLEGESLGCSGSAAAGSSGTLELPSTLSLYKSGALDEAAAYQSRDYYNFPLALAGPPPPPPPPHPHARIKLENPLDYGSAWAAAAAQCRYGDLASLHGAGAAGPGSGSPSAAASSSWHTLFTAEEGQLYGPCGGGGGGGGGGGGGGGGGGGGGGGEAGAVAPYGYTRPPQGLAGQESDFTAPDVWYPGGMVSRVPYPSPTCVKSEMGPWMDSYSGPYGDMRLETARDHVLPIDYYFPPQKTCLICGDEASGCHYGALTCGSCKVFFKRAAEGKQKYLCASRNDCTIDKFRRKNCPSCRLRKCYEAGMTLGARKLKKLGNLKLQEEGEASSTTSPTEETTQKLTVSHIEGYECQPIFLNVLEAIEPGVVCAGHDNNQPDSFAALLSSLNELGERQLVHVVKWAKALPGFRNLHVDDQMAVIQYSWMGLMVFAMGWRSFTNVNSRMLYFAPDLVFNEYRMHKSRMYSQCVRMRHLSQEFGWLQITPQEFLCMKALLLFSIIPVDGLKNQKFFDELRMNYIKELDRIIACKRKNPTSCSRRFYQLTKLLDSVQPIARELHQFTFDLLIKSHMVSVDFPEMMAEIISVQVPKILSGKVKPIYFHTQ
Kind of data set: Anti-DHT activity on AR transcription, MMTV-Luc reporter in PC-3 cells transfected with AR. In kind it is cell-based. More on the design: expressed in transfected cells; host or cells: PC-3. Conditions: for suppression of DHT-induced AR transactivation (in words): PC-3, 1 nM DHT, compound at 0.01, 0.1 or 1 μM; for antagonistic effects on DHT-enhanced AR transactivation (in words): compounds related to ADEK, cell line not given. As for the experimental part:
(§1) Cell Culture, Transfection, and Reporter Gene Assay. The human prostate cancer cell lines, LNCaP, PC-3, and DU145, and non-prostate cancer cell line COS-1 were maintained in RPMI or Dulbecco's modified Eagle's medium (DMEM) (Life Technologies) supplemented with 10% fetal bovine serum (FBS). Transfections and luciferase (Luc) assays were performed as previously described (Miyamoto, H., Yeh, S., Wilding, G. & Chang, C. (1998) Proc. Natl. Acad. Sci. USA 95, 7379-7384; Miyamoto, H., Rahman, M., Takatera, H., Kang, H.-Y., Yeh, S., Chang, H.-C., Nishimura, K., Fujimoto, N. & Chang, C. (2002) J. Biol. Chem. 277, 4609-4617). Briefly, cells seeded to reach a density of 50-60% confluence in 12 well tissue culture plates were transfected with 1.5 μg of DNA according to “SuperFect transfection” instructions (Qiagen). After 2-3 h incubation, cells were treated with medium supplemented with charcoal-stripped FBS containing either ethanol or ligands for 24 h. The cells were then harvested and whole cell extracts were used for Luc assay. The Luc activity was determined using a Dual-Luciferase Reporter Assay System (Promega) and luminometer.
(§2) To accomplish these studies, PC-3 cells were transfected with the wild-type AR expression plasmid pSG5-AR and MMTV-Luc. […] The Luc activity was measured relative to that of ethanol treatment (set as 1-fold). Values from the mean±SD of at least three determinations were used. PC-3 cells were transfected with the pSG5-AR and MMTV-Luc. […] Values from the mean±SD of at least three determinations were obtained.

The subject of a further data set is LNCaP cells. The data set can be described thus: LNCaP cell growth, cell count by hemocytometer. In kind it is cell-based, human. The note with it: 1 nM DHT; 1 μM compound in presence of DHT.
The next data set relates to PSA. Kind of data set: PSA expression in LNCaP cells, Western blot. The note with it: 48 h. In kind it is cell-based, human.
In data set [2] the target is T1, wild-type AR. The data set can be described thus: AR transcriptional activity (androgenic activity), MMTV-Luc reporter in PC-3 cells transfected with wild-type AR. More on the design: expressed in transfected cells; host or cells: PC-3. Format: cell-based. Conditions: PC-3, wild-type AR plasmid + MMTV-Luc, compound at 1000 nM, 24 h. As for the experimental part: as §1
Anti-DHT Effect of DHEA Derivatives with Low Androgenic Activity on AR Transcription. Test compounds as antiandrogenic compounds, were characterized by analysis of their ability to induce AR transcriptional activity in the AR-negative PC-3 cell line. The Luc activity was determined in the cell extracts with transient transfection of wild-type AR plasmid and androgen response element-reporter plasmid (mouse mammary tumor virus (MMTV)-Luc). After transfection, the cells were treated with various compounds at 0.1-1,000 nM.
as §2

Entries after “also recorded” stand apart in the source; their conditions may differ.

Protocol for PSA: Western Blot. […] An antibody for -actin (Santa Cruz Biotechnology) was used as the internal control. Blots were quantitated by Collage software (Fotodyne).
The 33-kDa protein was quantitated. β-Actin expression was used as an internal control. […] The mean±SD of three separate experiments was determined. […] Total cell number was counted by hemocytometer. The mean of at least three determinations was determined.

`C[C@]12C=C[C@H](O)CC1=CC[C@@H]1[C@@H]2CC[C@@]2(C)[C@H]1CCC21OCCO1` had a melting point of 138 to 140 °C.
As to `C[C@]12CC[C@H]3[C@@H]([C@H](O)CC4C[C@@H](O)CC[C@@]43C)[C@@H]1CC[C@@H]2O` (stereo partly drawn) [3β,7α,17β-trihydroxyandrostane], the “suppression of DHT-induced AR transactivation (in words)” value (“suppression” below) on wild-type AR [1] is on record as “little or no capacity”.
Same read-out and setting: next, `C[C@]12CC[C@H]3[C@@H]([C@@H](O)C=C4C[C@@H](O)CC[C@@]43C)[C@@H]1CC[C@@H]2O` [3β,7β,17β-trihydroxyandrost-5-ene]: “little or no capacity”; `COC(=O)[C@H]1CC[C@@]2(C)C(=CC(=O)[C@@H]3[C@@H]2CC[C@]2(C)C(=O)[C@H](C(=O)OC)C[C@@H]32)C1` [3β,16α-bis-carbomethoxyandrost-5-ene-7,17-dione]: “less effective”.
Still for that read-out and setting: next, `C[C@]12CC[C@H]3[C@@H](CCC4=C[C@@H](O)CC[C@@]43C)[C@@H]1CC[C@@H]2O` [3β,17β-dihydroxyandrost-4-ene]: “less effective”.
Consider `CC(=O)O[C@H]1C=C[C@@]2(C)C(=CC[C@H]3[C@@H]4CC[C@H](O)[C@@]4(C)CC[C@@H]32)C1` [3β-acetoxy-17β-hydroxyandrost-1,5-diene], for which, at wild-type AR [1], the “suppression” value is “less effective” and the “antagonistic effects on DHT-enhanced AR transactivation (in words)” value (“antagonistic effects” for short) is reported as “did not show significant antagonistic effects”.
In the case of `CC12CCC3(CC1=CC(O)C1C2CCC2(C)C1CCC21OCCO1)OCCO3` (stereo not drawn) [7α-hydroxyandrost-5-ene-3,17-bis ethylene ketal], the “suppression” value on wild-type AR [1] is recorded as “less effective; also recorded: little or no capacity”.
Still for that read-out and setting: next, `C[C@]12CC[C@H]3[C@@H]([C@@H](O)C=C4CC5(CC[C@@]43C)OCCO5)[C@@H]1CC[C@@H]2O` [7β,17β-dihydroxyandrost-5-ene-3-ethylene ketal]: “less effective”; `C[C@]12CC[C@H](O)C[C@@H]1CC[C@@H]1[C@@H]2CC[C@]2(C)C(=O)[C@H](Br)C[C@@H]12` [16α-bromoepiandrosterone]: “little or no capacity”.
Consider `CC(=O)O[C@H]1CC[C@H]2[C@@H]3CC(=O)C4=CC(=O)CC[C@]4(C)[C@H]3CC[C@]12C` [17β-acetoxyandrost-4-ene-3,6-dione], for which the “suppression” value on wild-type AR [1] is “little or no capacity”.
The same measure, in the same setting: as for `CCC(=O)O[C@H]1CC[C@H]2[C@@H]3C(=O)C=C4CC5(CC[C@]4(C)[C@H]3CC[C@]12C)OCCO5` [17β-propionony-7-oxoandrost-5-en-3-ethylene ketal], the entry is “little or no capacity”.
As to `C[C@]12CCC(=O)C[C@@H]1CC[C@@H]1[C@@H]2CC[C@]2(C)[C@@H](O)CC[C@@H]12` [DHT, dihydrotestosterone, reference compound], in the data set on LNCaP cells, the “effect on LNCaP cell growth, DHT alone or compound with DHT (in words)” value was “significantly increased cell growth”. For the same molecule, the “endogenous PSA expression over mock treatment” value with PSA (1 nM DHT or 1 μM HF, casodex, ADEK in absence of DHT) stood at 4.3 fold.
Consider `C[C@]12CC[C@H]3[C@@H]([C@H](O)C=C4C[C@@H](O)CC[C@@]43C)[C@@H]1CC[C@@H]2O` [No. 5, 3β,7α,17β-trihydroxyandrost-5-ene], for which, at wild-type AR [2], the “induction on AR transcription as compared to mock treatment” value was “marginal induction”. Besides, the “suppression” value on wild-type AR [1] is listed as “modest suppression”.
As for `CC(=O)O[C@H]1C=C[C@@]2(C)C(=CC[C@@H]3[C@@H]2CC[C@]2(C)C(=O)CC[C@@H]32)C1` [No. 14, 3β-acetoxyandrost-1,5-diene-17-one], the “induction on AR transcription as compared to mock treatment” value on wild-type AR [2] was “marginal induction”. Also, on wild-type AR [1], the “suppression” value is “modest suppression” and the “antagonistic effects” value is reported as “did not show significant antagonistic effects”.
The matching figures for `C[C@]12C=C[C@H](O)CC1=CC[C@@H]1[C@@H]2CC[C@]2(C)C(=O)CC[C@@H]12` [No. 16, 3β-hydroxyandrost-1,5-diene-17-one]: “marginal induction”, “modest suppression” and “did not show significant antagonistic effects”.
With `C[C@]12C=CC(=O)C=C1CC[C@@H]1[C@@H]2CC[C@]2(C)C(=O)CC[C@@H]12` [androst-1,4-diene-3,17-dione], on wild-type AR [1], the “suppression” value was “less effective” and the “antagonistic effects” value is on record as “did not show significant antagonistic effects”.
In the case of `CC(O)(CS(=O)(=O)c1ccc(F)cc1)C(=O)Nc1ccc(C#N)c(C(F)(F)F)c1` (stereo not shown) [casodex, bicalutamide], the “DHT-induced PSA expression decreased to (DHT = 100%)” value in the data set with PSA (1 μM compound + 1 nM DHT) came out at 58%.
